Key:
[1] = Function of sodium cholate as bile acid carrier of insulin and protease inhibitor agent
diabetic dog = assay: Glucose levels in a diabetic dog after administration of insulin (oral enterocoated capsule; intramuscular comparison); type: in vivo; settings: 0.5 u/kg intramuscular injection
blood glucose levels = settings: insulin mixed with bile salts, through the rectum, dose of 48 μ/kg; cited from earlier work

Molecule | function as bile acid carrier of the insulin and protease inhibitor agent [1] | Glucose (diabetic dog; 0 min) | Glucose (diabetic dog; 10 min) | Glucose (diabetic dog; 20 min) | Glucose (diabetic dog; 30 min) | Glucose (diabetic dog; 45 min) | Glucose (diabetic dog; 60 min) | Glucose (diabetic dog; 75 min) | Glucose (diabetic dog; 90 min) | Glucose (diabetic dog; 120 min) | Glucose (diabetic dog; 150 min) | Glucose (diabetic dog; 180 min) | reduction of blood glucose levels (blood glucose levels)
C[C@H](CCC(=O)[O-])[C@H]1CC[C@H]2[C@@H]3[C@H](O)C[C@@H]4C[C@H](O)CC[C@]4(C)[C@H]3C[C@H](O)[C@]12C.[Na+] [sodium cholate] | can simultaneously function both as the bile acid carrier of the insulin and the protease inhibitor agent |  |  |  |  |  |  |  |  |  |  |  | 
Insulin |  | 28.7 mm | 23.3 mm | 21.5 mm | 19.9 mm | 15.6 mm | 12.9 mm | 10.9 mm | 8.5 mm | 6.5 mm | 6.4 mm | 6.5 mm | approximately 50%

— patent US4579730A (Hadassah Medical Organization, priority 1983, dated 1986)
